Experimental data taken from patent US7326721B2 (Hypnion, Inc., priority 2003, dated 2008).
Values joined by “and” are separate entries in the source; they are usually repeats but may differ in a detail not shown here. Identical values can stand only once. Like-named read-outs stand apart in the source and are kept apart here.

Assays:
adult male Wistar rats = assay: SCORE-2000 sleep-wakefulness, locomotor activity and body temperature monitoring; assay type: in vivo, rat
male Wistar rats = assay type: in vivo
Description: The Irwin screen can provide useful information on potential side effects of compounds on general physiological and behavioural functions. The screen was conducted by administering the test compounds orally in 0.25% aqueous methylcellulose using male Wistar rats, a frequently used species in such studies and for which background data are readily available.
The Irwin screen tests for numerous parameters in animals that have been administered the test compound. For example, the screen can include: in-cage effects, e.g., dispersion, respiratory rate, locomotor activity, restlessness, fighting, alertness, apathy, and exophthalmus; in-arena effects, e.g., transfer arousal, spatial locomotion, ptosis, startle, tail elevation, piloerection, touch escape, positional passivity, catalepsy, tighting reflex, visual placing, grip strength, pinna, corneal, pain response, and wire manoeuvre; parameters observed in handling, e.g., cyanosis, cutaneous blood flow, hypothermia, body tone, pupil size, light-pupil response, lacrimation, grooming, red staining, salivation, and provoked biting; general scores e.g., fearfulness, irritability, abnormal gait, abnormal body carriage, tremors, twitches, convulsions, bizarre behaviour, writhing, vocalisation, diarrhoea, number of defaecations, number of urinations, moribund, lethality, and abnormalities detected. Further details can be found in Irwin, S; Comprehensive observational assessment: I a. A systematic, quantitative procedure for assessing the behavioural and physiological state of the mouse.
Irwin screening of the disclosed sleep-inducing agents was performed by Covance (Princeton, N.J.) according to Irwin, above; Covance Standard Operating Procedure (current revision of SOP PHARM 8.10); relevant regulatory authority guidelines ICH (International Committee for Harmonization) Guideline (Topic S7A; CPMP/ICH/539/00) on Safety Pharmacology Studies for human pharmaceuticals (November 2000); and all procedures carried out on live animals were subject to the provisions of United Kingdom Law, in particular the Animals (Scientific Procedures) Act, 1986. which obliges all UK laboratories to maintain a local ethical review process to ensure that all animal use in the establishment is carefully considered and justified; that proper account is taken of all possibilities for reduction, refinement or replacement and that high standards of accommodation and care are achieved.
All test compound formulations were prepared on the day of dosing by Covance Harrogate Dispensary. The test compounds were formulated in 0.25% aqueous methylcellulose at the highest concentration required. Lower doses were obtained by serial dilution of the highest concentration using 0.25% aqueous methylcellulose. Dose levels are expressed in terms of the amount of test compound administered without regard to purity or active content. All formulations were stored at room temperature (nominally 10 to 30° C.) in sealed containers and protected from light.
An adequate number of male Wistar (Crl:WI(Glx/BRL/Han) BR:WH) rats were obtained from Charles River Ltd. (Margate, Kent, United Kingdom). The rats were approximately 5 weeks of age and weighed between 150 and 170 g on arrival. The animals were housed in groups of no more than six in polypropylene cages (33×15×13 cm) or (45×28×20 cm) with solid floors and Grade 10 woodflakes (Datesand Ltd., Cheshire, United Kingdom) as bedding. The cages were cleaned and dried before use. Aspen chew blocks were placed within the cages as a form of environmental enrichment. Routinely, holding rooms were maintained within acceptable limits for temperature and relative humidity (nominally 19 to 25° C. and 40% to 70%, respectively). These rooms were illuminated by fluorescent light for 12 hours out of each 24 hour cycle and designed to receive at least 15 fresh air changes per hour. […]

H1 histamine receptor = target: T1, H1 histamine receptor (Bos taurus, UniProt P30546); assay: Histamine H1 competitive binding assay ([3H]pyrilamine); design: species or system bovine; details: read-out: Ki H1
T1 construct: the receptors were obtained from bovine cerebellar membrane tissue; from tissue; host or cells: bovine cerebellar membranes

hERG = hERG (Homo sapiens, UniProt Q12809)
M1 muscarinic receptor = target: T2, M1 muscarinic receptor (Homo sapiens, UniProt P11229); assay: Muscarinic M1 binding assay ([3H]-scopolamine, N-methyl chloride); design: purchased PerkinElmer, Inc., Wellesley, Mass; host or cells: CHO cells; details: read-out: Ki M1
T2 sequence (P11229 1-460): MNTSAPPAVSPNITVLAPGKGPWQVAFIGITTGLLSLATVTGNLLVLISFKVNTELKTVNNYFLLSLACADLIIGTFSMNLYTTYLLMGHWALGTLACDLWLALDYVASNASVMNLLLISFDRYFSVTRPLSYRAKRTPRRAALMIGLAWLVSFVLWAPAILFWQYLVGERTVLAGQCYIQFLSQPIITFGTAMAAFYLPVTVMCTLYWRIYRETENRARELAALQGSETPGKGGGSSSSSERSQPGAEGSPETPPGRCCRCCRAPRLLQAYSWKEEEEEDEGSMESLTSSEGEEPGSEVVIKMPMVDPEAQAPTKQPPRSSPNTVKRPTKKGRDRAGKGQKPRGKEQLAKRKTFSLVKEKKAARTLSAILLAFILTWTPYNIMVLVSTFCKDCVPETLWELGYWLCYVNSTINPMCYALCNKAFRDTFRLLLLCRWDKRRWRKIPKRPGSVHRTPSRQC

M2 muscarinic receptor = target: T3, M2 muscarinic receptor (Homo sapiens, UniProt P08172); assay: Muscarinic M2 binding assay; design: purchased PerkinElmer, Inc., Wellesley, Mass; host or cells: CHO cells; details: read-out: Ki M2
T3 sequence (P08172 1-466): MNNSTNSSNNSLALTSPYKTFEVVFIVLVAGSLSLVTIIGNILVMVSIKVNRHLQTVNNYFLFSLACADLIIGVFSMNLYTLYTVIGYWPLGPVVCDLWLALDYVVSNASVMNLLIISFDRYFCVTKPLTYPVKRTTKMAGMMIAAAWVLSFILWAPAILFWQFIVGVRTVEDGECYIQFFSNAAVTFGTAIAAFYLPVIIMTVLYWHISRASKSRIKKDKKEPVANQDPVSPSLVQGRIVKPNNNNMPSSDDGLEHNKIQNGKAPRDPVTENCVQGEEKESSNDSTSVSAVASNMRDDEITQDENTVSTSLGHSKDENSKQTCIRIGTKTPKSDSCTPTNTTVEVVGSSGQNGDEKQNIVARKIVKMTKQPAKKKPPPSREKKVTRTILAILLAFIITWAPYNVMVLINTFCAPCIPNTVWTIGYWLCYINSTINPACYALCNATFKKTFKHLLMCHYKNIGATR

M3 muscarinic receptor = M3 muscarinic receptor (Homo sapiens, UniProt P20309); assay: Muscarinic M3 binding assay; design: purchased PerkinElmer, Inc., Wellesley, Mass; host or cells: CHO cells; details: read-out: Ki M3
Sequence of M3 muscarinic receptor (P20309 whole entry): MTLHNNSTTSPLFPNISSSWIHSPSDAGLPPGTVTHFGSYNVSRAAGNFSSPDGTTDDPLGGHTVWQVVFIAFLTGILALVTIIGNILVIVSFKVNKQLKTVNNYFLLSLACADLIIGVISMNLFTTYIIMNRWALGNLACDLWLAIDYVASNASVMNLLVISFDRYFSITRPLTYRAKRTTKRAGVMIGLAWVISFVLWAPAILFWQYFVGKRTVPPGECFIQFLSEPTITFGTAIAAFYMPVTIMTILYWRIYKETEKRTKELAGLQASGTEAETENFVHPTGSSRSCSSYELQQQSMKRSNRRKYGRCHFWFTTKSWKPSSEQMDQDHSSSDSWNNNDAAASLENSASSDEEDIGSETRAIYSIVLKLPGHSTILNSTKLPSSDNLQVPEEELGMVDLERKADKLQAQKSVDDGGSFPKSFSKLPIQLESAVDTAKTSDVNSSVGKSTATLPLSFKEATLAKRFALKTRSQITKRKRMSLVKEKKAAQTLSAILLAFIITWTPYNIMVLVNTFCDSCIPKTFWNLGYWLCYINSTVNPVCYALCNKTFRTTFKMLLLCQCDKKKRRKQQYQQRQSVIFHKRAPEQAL

T1 sequence (P30546 whole entry): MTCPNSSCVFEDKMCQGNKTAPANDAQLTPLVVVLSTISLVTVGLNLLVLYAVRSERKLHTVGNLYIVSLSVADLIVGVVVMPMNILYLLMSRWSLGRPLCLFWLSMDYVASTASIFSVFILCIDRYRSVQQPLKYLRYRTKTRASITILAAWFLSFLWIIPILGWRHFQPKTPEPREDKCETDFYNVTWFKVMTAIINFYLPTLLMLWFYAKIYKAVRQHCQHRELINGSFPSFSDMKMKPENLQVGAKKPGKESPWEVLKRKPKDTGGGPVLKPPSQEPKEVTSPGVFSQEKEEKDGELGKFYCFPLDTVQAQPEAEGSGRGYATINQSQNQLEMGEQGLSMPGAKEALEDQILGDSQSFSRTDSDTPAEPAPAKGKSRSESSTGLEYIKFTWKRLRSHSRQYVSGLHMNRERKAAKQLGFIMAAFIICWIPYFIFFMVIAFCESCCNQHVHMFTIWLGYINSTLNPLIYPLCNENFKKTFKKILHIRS
Sequence of hERG (Q12809 whole entry): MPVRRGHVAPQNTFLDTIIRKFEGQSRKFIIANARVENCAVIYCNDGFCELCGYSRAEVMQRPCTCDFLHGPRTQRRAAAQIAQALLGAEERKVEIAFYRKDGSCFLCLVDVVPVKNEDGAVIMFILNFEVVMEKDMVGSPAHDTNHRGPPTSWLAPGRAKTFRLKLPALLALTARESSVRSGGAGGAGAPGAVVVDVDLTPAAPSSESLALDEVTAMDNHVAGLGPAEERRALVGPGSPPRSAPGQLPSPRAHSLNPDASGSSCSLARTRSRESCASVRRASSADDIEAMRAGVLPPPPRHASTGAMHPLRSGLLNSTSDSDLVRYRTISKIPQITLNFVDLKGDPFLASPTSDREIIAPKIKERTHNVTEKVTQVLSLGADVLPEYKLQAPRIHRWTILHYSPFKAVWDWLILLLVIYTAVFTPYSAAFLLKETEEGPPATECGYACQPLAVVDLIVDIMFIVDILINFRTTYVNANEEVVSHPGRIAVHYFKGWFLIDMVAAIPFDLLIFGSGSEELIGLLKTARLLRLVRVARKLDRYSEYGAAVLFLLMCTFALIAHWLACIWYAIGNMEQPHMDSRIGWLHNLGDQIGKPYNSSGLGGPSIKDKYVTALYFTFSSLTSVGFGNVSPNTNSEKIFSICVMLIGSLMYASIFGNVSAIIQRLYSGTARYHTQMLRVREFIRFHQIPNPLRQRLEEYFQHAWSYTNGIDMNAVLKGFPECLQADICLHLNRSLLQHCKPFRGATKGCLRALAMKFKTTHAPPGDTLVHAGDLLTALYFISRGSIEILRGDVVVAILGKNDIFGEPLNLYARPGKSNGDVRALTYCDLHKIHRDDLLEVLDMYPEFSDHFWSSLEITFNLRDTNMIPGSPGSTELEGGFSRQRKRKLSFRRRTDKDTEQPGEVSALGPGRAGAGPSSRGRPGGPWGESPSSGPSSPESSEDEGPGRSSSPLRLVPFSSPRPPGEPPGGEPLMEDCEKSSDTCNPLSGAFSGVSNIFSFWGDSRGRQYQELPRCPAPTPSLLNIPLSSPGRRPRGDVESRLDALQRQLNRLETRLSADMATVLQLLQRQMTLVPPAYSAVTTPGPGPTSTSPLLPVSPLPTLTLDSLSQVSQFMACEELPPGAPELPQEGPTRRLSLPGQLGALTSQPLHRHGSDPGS

Compound | LUSB (adult male Wistar rats; dose 10 mg/kg oral at CT-18) [min] | NREM (adult male Wistar rats; dose 10 mg/kg oral at CT-18) [min] | LUSB (adult male Wistar rats; dose 30 mg/kg oral at CT-18) [min] | NREM (adult male Wistar rats; dose 30 mg/kg oral at CT-18) [min] | Irwin at mg/kg dose (male Wistar rats; rat, in vivo) | Ki (H1 histamine receptor) [µM] | Ki (M1 muscarinic receptor) [µM] | Ki (M2 muscarinic receptor) | LUSB (adult male Wistar rats; dose 3 mg/kg oral at CT-18) [min] | NREM (adult male Wistar rats; dose 3 mg/kg oral at CT-18) [min] | hERG at micromolar (% blocking of the hERG channel) (hERG; human, 10 µM, pH 7.4) [% @ 10] | Ki (M3 muscarinic receptor) [µM] | Irwin at mg/kg dose (male Wistar rats; 30 mg/kg oral) | Irwin at mg/kg dose (male Wistar rats; 100 mg/kg oral) | further results
CC(C)(CCN1CCC(=C2c3ccccc3COc3ccccc32)CC1)C(=O)O [Compound 70a] | 3.7 | 13.2 | 6 | 33.6 | clean | 0.0368 | 0.811 | 3.31 µM and 1.36 µM | – | – | – | – | – | – | LUSB (adult male Wistar rats; dose 45 mg/kg oral at CT-18): 12.1 min; NREM (adult male Wistar rats; dose 45 mg/kg oral at CT-18): 29.3 min; hERG at micromolar (% blocking of the hERG channel) (hERG; human, 1 µM, pH 7.4): 5.1% @ 1
O=C(O)C1(CN2CCC(=C3c4ccccc4COc4ccccc43)CC2)CC1 [Compound 69b] | 6.2 | 44.3 | 14 | 41.6 | clean | 0.0549 | > 10 | > 10 µM | 5.9 | 14.9 | 12.6 | > 10 | – | – | LUSB (adult male Wistar rats; dose 15 mg/kg oral at CT-18): 14.4 min; NREM (adult male Wistar rats; dose 15 mg/kg oral at CT-18): 43.4 min; LUSB (adult male Wistar rats; dose 20 mg/kg oral at CT-18): 11.6 min; NREM (adult male Wistar rats; dose 20 mg/kg oral at CT-18): 39.4 min
O=C(O)CN1CCC(=C2c3ccccc3COc3ccccc32)CC1 [Compound 71e] | – | – | 4.1 | 34.5 | 10, 30 clean; 100 many side effects | 0.0607 | 12.1 | 5.13 µM | – | – | – | > 10 | clean | many side effects | hERG at micromolar (% blocking of the hERG channel) (hERG): 3.6% @ 1
COc1ccc2c(c1)COc1ccccc1C2=C1CCN(CC(C)(C)C(=O)O)CC1 [Compound 50a] | 9.3 | 32.6 | 11.2 | 41.9 | clean | 0.0272 | > 10 | > 10 µM | 4.8 | 12.7 | 9.7 | > 10 | – | – | –
CC(C)(CN1CCC(=C2c3ccc(Cl)cc3COc3ccccc32)CC1)C(=O)O [Compound 51a] | 18.2 | 60.3 | 6.3 | 49.3 | – | 0.0264 | > 10 | > 10 µM | 8.8 | 32.1 | – | > 10 | some side effects | lethality | Irwin at mg/kg dose (male Wistar rats; 10 mg/kg oral): clean; hERG at micromolar (% blocking of the hERG channel) (hERG; human, pH 7.4): 40.6%
O=C(O)CCCN1CCC(=C2c3ccccc3COc3ccccc32)CC1 [Compound 70e] | 6.6 | 27.4 | 15 | 43.3 | 10, 30 clean; 100 some side effects | 0.136 | > 10 | > 10 µM | 6.6 | 25.7 | – | > 10 | clean | some side effects | hERG at micromolar (% blocking of the hERG channel) (hERG): 2.7% @ 1
O=C(O)C1(CCN2CCC(=C3c4ccc(Cl)cc4COc4ccccc43)CC2)CC1 [Compound 59b] | 12.8 | 42.4 | 6.1 | 23.1 | clean | 0.0667 | > 10 | > 10 µM | – | – | 28 | > 10 | – | – | –
O=C(O)C1(CCN2CCC(=C3c4ccccc4COc4ccccc43)CC2)CC1 [Compound 70b] | 8.3 | – | – | – | – | – | – | – | – | – | – | – | clean | some side effects | Irwin at mg/kg dose (male Wistar rats; 10 mg/kg oral): clean; hERG at micromolar (% blocking of the hERG channel) (hERG; concentration not given): 50.2%
